Where two headings read alike, the source gives them in different places.
Experiments:
[1] = biological target: GST-MCL-1 (Homo sapiens, UniProt Q07820); experiment: TR-FRET MCL-1 binding assay (competition with probe F-Bak)
In short: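 Displacement of F-Bak from GST-MCL-1 is detected by time-resolved FRET with a Tb-labelled anti-GST antibody, with excitation 340/35 nm and emission 520/525 and 495/510 nm, after 2 hours at room temperature. Compounds were titrated in 11 three-fold steps starting at 25 μM final, in buffer alone or in 10% HS.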

[2] = tested on: AMO-1 human multiple myeloma tumor cell line; experiment: AMO-1 cell viability assay (CellTiter-Glo, 24 hours); format: cell-based; conditions: Homo sapiens, AMO1, 24 h, read-out: AMO-1 Viability IC50 (μM, 10% FBS), 10% FBS, 24 hours of compound treatment
[3] = tested on: NCI-H929 human multiple myeloma tumor cell line; experiment: NCI-H929 cell viability assay (CellTiter-Glo, 24 hours); format: cell-based; conditions: Homo sapiens, NCI-H929, 24 h, read-out: H929 Viability IC50 (μM, 10% FBS), 10% FBS, 24 hours of compound treatment
[4] = MCL-1 Binding Ki (nM, 10% HS), in the presence of 10% HS (human serum)
[5] = without HS, read-out: MCL-1 Binding Ki

Chain of GST-MCL-1 (Q07820 whole entry): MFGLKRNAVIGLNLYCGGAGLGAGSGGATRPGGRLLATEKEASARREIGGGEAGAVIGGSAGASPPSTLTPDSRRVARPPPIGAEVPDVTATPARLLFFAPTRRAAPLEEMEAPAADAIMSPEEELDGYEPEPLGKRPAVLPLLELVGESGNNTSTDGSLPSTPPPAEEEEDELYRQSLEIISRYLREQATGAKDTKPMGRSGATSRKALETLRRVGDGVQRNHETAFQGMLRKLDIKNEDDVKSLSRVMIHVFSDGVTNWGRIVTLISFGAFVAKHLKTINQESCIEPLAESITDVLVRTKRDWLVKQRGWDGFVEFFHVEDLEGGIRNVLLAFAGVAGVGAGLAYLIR

SMILES | Ki [1, 4] [nM] | Ki [1, 5] [nM] | IC50 [2] [µM] | IC50 [3] [µM]
COCCOCCO[C@]1(c2nccc(COc3ccc4cc3C[C@H](C(=O)O)Oc3ncnc5sc(-c6ccc(F)cc6)c(c35)-c3c(C)c(Cl)c(c(Cl)c3C)O[C@H](CN3CCN(C)CC3)CO4)n2)CC[C@@H](OCC2COCCO2)CC1 (stereo partly drawn) [Example 121, (7R,16R)-19,23-dichloro-10-[(2-{(1r,4r)-4-[(1,4-dioxan-2-yl)methoxy]-1-[2-(2-methoxyethoxy)ethoxy]cyclohexyl}pyrimidin-4-yl)methoxy]-1-(4-fluorophenyl)-20,22-dimethyl-16-[(4-methylpiperazin-1-yl)methyl]-7,8,15,16-tetrahydro-18,21-etheno-9,13-(metheno)-6,14,17-trioxa-2-thia-3,5-diazacyclononadeca[1,2,3-cd]indene-7-carboxylic Acid] | 0.231 | 0.052 | 0.00508 | 0.00956
Cc1c(Cl)c2c(Cl)c(C)c1-c1c(-c3ccc(F)cc3)sc3ncnc(c13)O[C@@H](C(=O)O)Cc1cc(ccc1OCc1ccnc(N3CCC4(CCCNC4=O)CC3)n1)OC[C@@H](CN1CCN(C)CC1)O2 [Example 61, (7R,16R)-19,23-dichloro-1-(4-fluorophenyl)-20,22-dimethyl-16-[(4-methylpiperazin-1-yl)methyl]-10-{[2-(1-oxo-2,9-diazaspiro[5.5]undecan-9-yl)pyrimidin-4-yl]methoxy}-7,8,15,16-tetrahydro-18,21-etheno-13,9-(metheno)-6,14,17-trioxa-2-thia-3,5-diazacyclononadeca[1,2,3-cd]indene-7-carboxylic Acid] | 4.2 | 0.364 | 0.00886 | 0.0115
Cc1c(Cl)c2c(Cl)c(C)c1-c1c(-c3ccc(F)cc3)sc3ncnc(c13)O[C@@H](C(=O)O)Cc1cc(ccc1OCc1ccnc(-c3cccc(CN4CCOCC4)c3)n1)OC[C@@H](CN1CCN(C)CC1)O2 [Example 147, (7R,16R)-19,23-dichloro-1-(4-fluorophenyl)-20,22-dimethyl-16-[(4-methylpiperazin-1-yl)methyl]-10-[(2-{3-[(morpholin-4-yl)methyl]phenyl}pyrimidin-4-yl)methoxy]-7,8,15,16-tetrahydro-18,21-etheno-13,9-(metheno)-6,14,17-trioxa-2-thia-3,5-diazacyclononadeca[1,2,3-cd]indene-7-carboxylic Acid] | 0.098 | 0.002 | 0.000204 | 0.000162
Cc1c(Cl)c2c(Cl)c(C)c1-c1c(-c3ccc(F)cc3)sc3ncnc(c13)O[C@@H](C(=O)O)Cc1cc(ccc1OCc1ccnc(-c3ccc(CCN4CC5COCC5C4)cc3)n1)OC[C@@H](CN1CCN(C)CC1)O2 (stereo partly drawn) [Example 166, (7R,16R)-19,23-dichloro-1-(4-fluorophenyl)-20,22-dimethyl-16-[(4-methylpiperazin-1-yl)methyl]-10-[(2-{4-[2-(tetrahydro-1H-furo[3,4-c]pyrrol-5 (3H)-yl)ethyl]phenyl}pyrimidin-4-yl)methoxy]-7,8,15,16-tetrahydro-18,21-etheno-9,13-(metheno)-6,14,17-trioxa-2-thia-3,5-diazacyclononadeca[1,2,3-cd]indene-7-carboxylic Acid] | 0.058 | 0.002 | 0.000927 | 0.0032
Cc1c(Cl)c2c(Cl)c(C)c1-c1c(-c3ccc(F)cc3)sc3ncnc(c13)O[C@@H](C(=O)O)Cc1cc(ccc1OCc1ccnc(N3CCOCCOCCOCCOCCOCC3)n1)OC[C@@H](CN1CCN(C)CC1)O2 [Example 116, (7R,16R)-19,23-dichloro-1-(4-fluorophenyl)-20,22-dimethyl-16-[(4-methylpiperazin-1-yl)methyl]-10-{[2-(1,4,7,10,13-pentaoxa-16-azacyclooctadecan-16-yl)pyrimidin-4-yl]methoxy}-7,8,15,16-tetrahydro-18,21-etheno-13,9-(metheno)-6,14,17-trioxa-2-thia-3,5-diazacyclononadeca[1,2,3-cd]indene-7-carboxylic Acid] | 2.94 | 0.332 | 0.00297 | 0.00798
COCC(COC)Oc1ccc(-c2nccc(COc3ccc4cc3C[C@H](C(=O)O)Oc3ncnc5sc(-c6ccc(F)cc6)c(c35)-c3c(C)c(Cl)c(c(Cl)c3C)O[C@H](CN3CCN(C)CC3)CO4)n2)cc1 [Example 110, (7R,16R)-19,23-dichloro-10-[(2-{4-[(1,3-dimethoxypropan-2-yl)oxy]phenyl}pyrimidin-4-yl)methoxy]-1-(4-fluorophenyl)-20,22-dimethyl-16-[(4-methylpiperazin-1-yl)methyl]-7,8,15,16-tetrahydro-18,21-etheno-9,13-(metheno)-6,14,17-trioxa-2-thia-3,5-diazacyclononadeca[1,2,3-cd]indene-7-carboxylic Acid] | 49.9 | 9.63 | 0.000306 | 0.00103
CO[C@H]1O[C@H](COc2ccc(-c3nccc(COc4ccc5cc4C[C@H](C(=O)O)Oc4ncnc6sc(-c7ccc(F)cc7)c(c46)-c4ccc(c(Cl)c4C)CN(CCN4CCN(C)CC4)C5)n3)cc2)[C@@H](O)[C@H](O)[C@H]1O [Example 9, methyl 6-O-{4-[4-({[(7R,20S)-7-carboxy-18-chloro-1-(4-fluorophenyl)-19-methyl-15-[2-(4-methylpiperazin-1-yl)ethyl]-7,8,15,16-tetrahydro-14H-17,20-etheno-13,9-(metheno)-6-oxa-2-thia-3,5,15-triazacyclooctadeca[1,2,3-cd]inden-10-yl]oxy}methyl)pyrimidin-2-yl]phenyl}-a-D-glucopyranoside] | 0.296 | 0.048 | 0.732 | > 1
Cc1c(Cl)c2c(Cl)c(C)c1-c1c(-c3ccc(F)cc3)sc3ncnc(c13)O[C@@H](C(=O)O)Cc1cc(ccc1OCc1ccnc(-c3ccc(CN4CCOCCOCCOCCOCC4)cc3)n1)OC[C@@H](CN1CCN(C)CC1)O2 [Example 129, (7R,16R)-19,23-dichloro-1-(4-fluorophenyl)-20,22-dimethyl-16-[(4-methylpiperazin-1-yl)methyl]-10-[(2-{4-[(1,4,7,10-tetraoxa-13-azacyclopentadecan-13-yl)methyl]phenyl}pyrimidin-4-yl)methoxy]-7,8,15,16-tetrahydro-18,21-etheno-13,9-(metheno)-6,14,17-trioxa-2-thia-3,5-diazacyclononadeca[1,2,3-cd]indene-7-carboxylic Acid] | 0.064 | 0.002 | 0.000144 | 0.000562
Cc1c(Cl)c2c(Cl)c(C)c1-c1c(-c3ccc(F)cc3)sc3ncnc(c13)O[C@@H](C(=O)O)Cc1cc(ccc1OCc1ccnc(N3CCS(=O)(=O)CC3)n1)OC[C@@H](CN1CCN(C)CC1)O2 [Example 75, (7R,16R)-19,23-dichloro-10-{[2-(1,1-dioxo-1λ^6-thiomorpholin-4-yl)pyrimidin-4-yl]methoxy}-1-(4-fluorophenyl)-20,22-dimethyl-16-[(4-methylpiperazin-1-yl)methyl]-7,8,15,16-tetrahydro-18,21-etheno-9,13-(metheno)-6,14,17-trioxa-2-thia-3,5-diazacyclononadeca[1,2,3-cd]indene-7-carboxylic Acid] | 2.67 | 0.375 | 0.00386 | 0.00914
Cc1c(Cl)c2c(Cl)c(C)c1-c1c(-c3ccc(F)cc3)sc3ncnc(c13)O[C@@H](C(=O)O)Cc1cc(ccc1OCc1ccnc(N3CC(C(CO)CO)C3)n1)OC[C@@H](CN1CCN(C)CC1)O2 [Example 65, (7R,16R)-19,23-dichloro-10-({2-[3-(1,3-dihydroxypropan-2-yl)azetidin-1-yl]pyrimidin-4-yl}methoxy)-1-(4-fluorophenyl)-20,22-dimethyl-16-[(4-methylpiperazin-1-yl)methyl]-7,8,15,16-tetrahydro-18,21-etheno-9,13-(metheno)-6,14,17-trioxa-2-thia-3,5-diazacyclononadeca[1,2,3-cd]indene-7-carboxylic Acid] | 0.65 | 0.195 | 0.0209 | 0.0596
Cc1c(Cl)c2c(Cl)c(C)c1-c1c(-c3ccc(F)cc3)sc3ncnc(c13)O[C@@H](C(=O)O)Cc1cc(ccc1OCc1ccnc(-c3ccc(OCCN4CC5(COC5)C4)cc3)n1)OC[C@@H](CN1CCN(C)CC1)O2 [Example 165, (7R,16R)-19,23-dichloro-1-(4-fluorophenyl)-20,22-dimethyl-16-[(4-methylpiperazin-1-yl)methyl]-10-[(2-{4-[2-(2-oxa-6-azaspiro[3.3]heptan-6-yl)ethoxy]phenyl}pyrimidin-4-yl)methoxy]-7,8,15,16-tetrahydro-18,21-etheno-13,9-(metheno)-6,14,17-trioxa-2-thia-3,5-diazacyclononadeca[1,2,3-cd]indene-7-carboxylic Acid] | 0.267 | 0.031 | 0.00353 | 0.00856
COCCOCCOCCOc1ccc(-c2nccc(COc3ccc4cc3C[C@H](C(=O)O)Oc3ncnc5sc(-c6ccc(F)cc6)c(c35)-c3c(C)c(Cl)c(c(Cl)c3C)O[C@H](CN3CCN(C)CC3)CO4)n2)cc1 [Example 16, (7R,16R)-19,23-dichloro-1-(4-fluorophenyl)-10-{[2-(4-{2-[2-(2-methoxyethoxy)ethoxy]ethoxy}phenyl)pyrimidin-4-yl]methoxy}-20,22-dimethyl-16-[(4-methylpiperazin-1-yl)methyl]-7,8,15,16-tetrahydro-18,21-etheno-13,9-(metheno)-6,14,17-trioxa-2-thia-3,5-diazacyclononadeca[1,2,3-cd]indene-7-carboxylic Acid] | 0.359 | 0.028 | 0.000177 | 0.000347

— patent US20250313572A1, “MACROCYCLIC MCL-1 INHIBITORS AND METHODS OF USE” (AbbVie Inc., priority 2017, published 2025)
